Assay results taken from patent US8501810B2, “Guanidino acetic acid used as an animal food additive” (AlzChem Trostberg GmbH, priority 2004, dated 2013).
Each block holds one compound with its values, some of them ahead of it.

What was measured:
[1] = Comparative example: creatine in the feed for growing hens, 41 days growing duration; assay type: in vivo; settings: 0.2% (2 g/kg) in air-dried feed
Text: 2. Comparative Example (According to EP 920 689)
The effect of the addition of creatine in the feed for growing hens was investigated.
The feed consumption decreased by about 2-3% compared with previous feeding methods.

[2] = young rats, cited from earlier work
[3] = 1.112% in base feed, also in combination with methionine; cited from earlier work
[4] = Stability in acidic aqueous solution; assay type: physicochemical
Text: Thus in contrast to creatine, the majority of the compounds administered or fed, guanidinoacetic acid and/or salts of guanidinoacetic acid, are not degraded by instability reactions, for example in the stomach, and excreted before resorption, but are in fact available in the corresponding physiological metabolic reactions.

Staphyllococcus aureus = settings: cited from earlier work
[5] = Feed for growing hens, additive in air-dried feed, 42 days' growing duration; assay type: in vivo
Text: 1.4 Feed for Growing Hens
In addition, with this feed additive, the feed consumption decreased by about 6% compared with previous feeding methods.
In addition, it was found in this experiment that even an addition of 0.032% by weight of guanidinoacetic acid (0.32 g/kg) to the air-dried feed increased the final weight by 3% for 42 days' growing duration. The feed consumption decreased by 3% compared with previous feeding methods.

[6] = 0.032% by weight (0.32 g/kg) in air-dried feed
[7] = 0.092% by weight (0.92 g/kg) in air-dried feed
[8] = control group, 0.04% by weight (0.4 g/kg) in air-dried feed

Structure (SMILES): CN(CC(=O)O)C(=N)N [creatine]
decrease in feed consumption compared with previous feeding methods [1]: 2-3% | increase in the final weight compared with previous feeding methods [1]: 4% | meat quality [1]: improved quality | nature of the increase in weight (lean-body mass index) [1]: only by meat gain, but not by fat gain

stability in acidic aqueous solution in contrast to creatine and creatine monohydrate [4]: significantly higher stability
Structure (SMILES): N=C(N)NCC(=O)O [guanidinoacetic acid]
creatine content in the skeletal musculature and in the heart muscle ([2]; additional administration of methionine): increased | effect on the muscle creatine level ([2]; in combination with folacin and vitamin B12): no effect | effect on growth [2]: inhibitory activity | feed utilization [3]: significant decrease | weight gain [3]: significant decrease | use against bacterial infections in animal experiments (Staphyllococcus aureus): successfully used | decrease in feed consumption compared with previous feeding methods [5, 6]: 3% | increase in the final weight [5, 6]: 3% | decrease in feed consumption compared with previous feeding methods [5, 7]: about 6% | increase in the final weight compared with previous feeding methods [5, 7]: 7% | meat quality [5, 7]: improved quality | nature of the increase in weight (lean-body mass index) [5, 7]: solely by meat gain, but not by fat gain or water accumulation

Structure (SMILES): CN(CC(=O)O)C(=N)N.O [creatine monohydrate, reference compound]
decrease in feed consumption [5, 8]: no decreased feed consumption | increase in the final weight [5, 8]: no increase in the final weight
